According to PubChem BioAssay (NCI):
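Five compound concentrations were applied to cells in 96-well plates for 48 hours; endpoints were derived by simple linear interpolation of the resulting dose-response curve. GI50 = concentration required for 50% inhibition of growth. TGI is the concentration that stops growth completely.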

What was measured:
Test in all cases: NCI-60 cell line screen, 48 h
HCT-116 colon = test system: HCT-116 colon
HL-60(TB) leukemia = test system: HL-60(TB) leukemia
SK-MEL-28 melanoma = test system: SK-MEL-28 melanoma
A498 renal = test system: A498 renal
HT29 colon = test system: HT29 colon
MALME-3M melanoma = test system: MALME-3M melanoma
HOP-62 NSCLC = test system: HOP-62 NSCLC
K-562 leukemia = test system: K-562 leukemia
NCI/ADR-RES ovarian = test system: NCI/ADR-RES ovarian
786-0 renal = test system: 786-0 renal
NCI-H226 lung = test system: NCI-H226 lung
SF-295 CNS = test system: SF-295 CNS
T-47D breast = test system: T-47D breast
TK-10 renal = test system: TK-10 renal
DU-145 prostate = test system: DU-145 prostate
HOP-92 NSCLC = test system: HOP-92 NSCLC
MDA-MB-231 breast = test system: MDA-MB-231 breast
OVCAR-4 ovarian = test system: OVCAR-4 ovarian
NCI-H522 lung = test system: NCI-H522 lung
UACC-62 melanoma = test system: UACC-62 melanoma
NCI-H460 lung = test system: NCI-H460 lung
HCT-15 colon = test system: HCT-15 colon
NCI-H23 lung = test system: NCI-H23 lung
LOX IMVI melanoma = test system: LOX IMVI melanoma
SW-620 colon = test system: SW-620 colon
HS 578T breast = test system: HS 578T breast
SNB-19 CNS = test system: SNB-19 CNS
RPMI-8226 leukemia = test system: RPMI-8226 leukemia
CCRF-CEM leukemia = test system: CCRF-CEM leukemia

O=C(N/N=C/c1ccco1)c1[nH]c2ccc(Br)cc2c1-c1ccccc1
GI50 (HCT-116 colon): 106 nM
TGI (HCT-116 colon): 10700 nM
GI50 (HL-60(TB) leukemia): 135 nM
TGI (HL-60(TB) leukemia): 503 nM
GI50 (SK-MEL-28 melanoma): 735 nM
TGI (SK-MEL-28 melanoma): 21100 nM
GI50 (A498 renal): 8760 nM
TGI (A498 renal): 25400 nM
GI50 (HT29 colon): 143 nM
TGI (HT29 colon): 1230 nM
GI50 (MALME-3M melanoma): 211 nM
TGI (MALME-3M melanoma): 21300 nM
GI50 (HOP-62 NSCLC): 326 nM
TGI (HOP-62 NSCLC): 15400 nM
GI50 (K-562 leukemia): 48.5 nM
TGI (K-562 leukemia): 11900 nM
GI50 (NCI/ADR-RES ovarian): 187 nM
TGI (NCI/ADR-RES ovarian): 2800 nM
GI50 (786-0 renal): 411 nM
TGI (786-0 renal): 12600 nM
GI50 (NCI-H226 lung): 327 nM
TGI (NCI-H226 lung): 10400 nM
GI50 (SF-295 CNS): 46.4 nM
TGI (SF-295 CNS): 11100 nM
GI50 (T-47D breast): 1410 nM
TGI (T-47D breast): 26900 nM
GI50 (TK-10 renal): 1610 nM
TGI (TK-10 renal): 18000 nM
GI50 (DU-145 prostate): 309 nM
TGI (DU-145 prostate): 12000 nM
GI50 (HOP-92 NSCLC): 763 nM
TGI (HOP-92 NSCLC): 13200 nM
GI50 (MDA-MB-231 breast): 292 nM
TGI (MDA-MB-231 breast): 2970 nM
GI50 (OVCAR-4 ovarian): 988 nM
TGI (OVCAR-4 ovarian): 26200 nM
GI50 (NCI-H522 lung): 42.5 nM
TGI (NCI-H522 lung): 225 nM
GI50 (UACC-62 melanoma): 72.4 nM
TGI (UACC-62 melanoma): 13600 nM
GI50 (NCI-H460 lung): 147 nM
TGI (NCI-H460 lung): 1700 nM
GI50 (HCT-15 colon): 85.9 nM
TGI (HCT-15 colon): 11800 nM
GI50 (NCI-H23 lung): 403 nM
TGI (NCI-H23 lung): 14200 nM
GI50 (LOX IMVI melanoma): 89.9 nM
TGI (LOX IMVI melanoma): 11700 nM
GI50 (SW-620 colon): 105 nM
TGI (SW-620 colon): 17300 nM
GI50 (HS 578T breast): 234 nM
TGI (HS 578T breast): 29500 nM
GI50 (SNB-19 CNS): 252 nM
TGI (SNB-19 CNS): 14700 nM
GI50 (RPMI-8226 leukemia): 200 nM
TGI (RPMI-8226 leukemia): > 26900 nM
GI50 (CCRF-CEM leukemia): 238 nM
